# Key:
# Plasmodium falciparum [1] = assay: Antimalarial activity against ring stage of chloroquine-resistant Plasmodium falciparum Dd2 infected in erythrocytes assessed as [3H]-hypoxanthine incorporation after 48 hrs by liquid scintillation counting analysis; format: functional, organism-based
# Plasmodium falciparum [2] = assay: Antimalarial activity against ring stage of chloroquine-sensitive Plasmodium falciparum 3D7 infected in erythrocytes assessed as [3H]-hypoxanthine incorporation after 48 hrs by liquid scintillation counting analysis; format: functional, organism-based
# NFF = assay: Cytotoxicity against human NFF cells after 3 days by SRB assay; format: cell-based; details: 72 h
# [3] = Selectivity index, ratio of IC50 for human NFF cells to IC50 for Plasmodium falciparum; format: toxicity, cell-based; details: NFF cells (versus Plasmodium falciparum), read-out: Ratio IC50
SMILES,IC50 (Plasmodium falciparum [1]) [µM],IC50 (Plasmodium falciparum [2]) [µM],IC50 (NFF) [µM],selectivity ratio [3]
CC(=O)OC[C@H]1O[C@@H](SCc2nnn(-c3ccc(S(N)(=O)=O)cc3)c2I)[C@H](OC(C)=O)[C@@H](OC(C)=O)[C@@H]1OC(C)=O,1.3,0.9,51.1,≥ 40
CC(=O)OC[C@H]1O[C@@H](SCc2nnn(-c3ccc(S(N)(=O)=O)cc3)c2I)[C@H](OC(C)=O)[C@@H](OC(C)=O)[C@H]1OC(C)=O,4.1,1.4,> 100,
CC(=O)OC[C@H]1O[C@@H](S(=O)(=O)Cc2nnn(-c3ccc(S(N)(=O)=O)cc3)c2I)[C@H](OC(C)=O)[C@@H](OC(C)=O)[C@@H]1OC(C)=O,7.8,5.3,> 100,
CC(=O)OC[C@H]1O[C@@H](S(=O)(=O)Cc2nnn(-c3ccc(S(N)(=O)=O)cc3)c2I)[C@H](OC(C)=O)[C@@H](OC(C)=O)[C@@H]1O[C@H]1O[C@H](COC(C)=O)[C@@H](OC(C)=O)[C@H](OC(C)=O)[C@H]1OC(C)=O,2.4,2.3,> 100,
CC(=O)OC[C@H]1O[C@@H](S(=O)(=O)Cc2cn(-c3ccc(S(N)(=O)=O)cc3)nn2)[C@H](OC(C)=O)[C@@H](OC(C)=O)[C@@H]1O[C@H]1O[C@H](COC(C)=O)[C@@H](OC(C)=O)[C@H](OC(C)=O)[C@H]1OC(C)=O,14.7,20.7,,
NS(=O)(=O)c1ccc(-n2nnc(CS[C@@H]3O[C@H](CO)[C@@H](O)[C@H](O)[C@H]3O)c2I)cc1,1.9,1,> 100,≥ 40
NS(=O)(=O)c1ccc(-n2nnc(CS(=O)(=O)[C@@H]3O[C@H](CO)[C@@H](O)[C@H](O)[C@H]3O)c2I)cc1,> 50,28.6,,
CC(=O)OC[C@H]1O[C@@H](S(=O)(=O)Cc2nnn(-c3ccccc3)c2I)[C@H](OC(C)=O)[C@@H](OC(C)=O)[C@@H]1OC(C)=O,3.4,4.7,,
CC(=O)OC[C@H]1O[C@@H](OCc2cn(-c3ccccc3)nn2)[C@H](OC(C)=O)[C@@H](OC(C)=O)[C@@H]1OC(C)=O,> 50,> 50,,
O=S(=O)(Cc1nnn(-c2ccccc2)c1I)[C@@H]1O[C@H](CO)[C@@H](O)[C@H](O)[C@H]1O,3.4,3.8,,
CC(=O)OC[C@H]1O[C@@H](SCc2cn(-c3ccccc3)nn2)[C@H](OC(C)=O)[C@@H](OC(C)=O)[C@@H]1OC(C)=O,> 50,> 50,,
OC[C@H]1O[C@@H](SCc2cn(-c3ccccc3)nn2)[C@H](O)[C@@H](O)[C@@H]1O,> 50,> 50,,
CC(=O)OC[C@H]1O[C@@H](S(=O)(=O)Cc2cn(-c3ccccc3)nn2)[C@H](OC(C)=O)[C@@H](OC(C)=O)[C@@H]1OC(C)=O,> 50,> 50,,
O=S(=O)(Cc1cn(-c2ccccc2)nn1)[C@@H]1O[C@H](CO)[C@@H](O)[C@H](O)[C@H]1O,> 50,> 50,,
COC(=O)[C@H]1O[C@@H](SCc2nnn(-c3ccc(S(N)(=O)=O)cc3)c2I)[C@H](OC(C)=O)[C@@H](OC(C)=O)[C@@H]1OC(C)=O,6,2.1,> 100,
CC(=O)OC[C@H]1O[C@@H](OCc2nnn(-c3ccc(S(N)(=O)=O)cc3)c2I)[C@H](OC(C)=O)[C@@H](OC(C)=O)[C@@H]1OC(C)=O,2.6,2.8,> 100,
CC(=O)OC[C@H]1O[C@@H](SCc2nnn(-c3ccccc3)c2I)[C@H](OC(C)=O)[C@@H](OC(C)=O)[C@@H]1OC(C)=O,4.8,4.6,,
OC[C@H]1O[C@@H](SCc2nnn(-c3ccccc3)c2I)[C@H](O)[C@@H](O)[C@@H]1O,4.4,4.9,,
CC(=O)OC[C@H]1O[C@@H](OCc2nnn(-c3ccccc3)c2I)[C@H](OC(C)=O)[C@@H](OC(C)=O)[C@@H]1OC(C)=O,9.4,10.6,,
CC(=O)OC[C@H]1O[C@@H](OCc2cn(-c3ccc(S(N)(=O)=O)cc3)nn2)[C@H](OC(C)=O)[C@@H](OC(C)=O)[C@@H]1OC(C)=O,11.7,9.7,,
CC(=O)OC[C@H]1O[C@@H](S(=O)(=O)Cc2cn(-c3ccc(S(N)(=O)=O)cc3)nn2)[C@H](OC(C)=O)[C@@H](OC(C)=O)[C@@H]1OC(C)=O,> 50,> 50,,
NS(=O)(=O)c1ccc(-n2cc(CS[C@@H]3O[C@H](CO)[C@@H](O)[C@H](O)[C@H]3O)nn2)cc1,> 50,> 50,,
NS(=O)(=O)c1ccc(-n2cc(CS(=O)(=O)[C@@H]3O[C@H](CO)[C@@H](O)[C@H](O)[C@H]3O)nn2)cc1,> 50,> 50,,
CC(=O)OC[C@H]1O[C@@H](SCc2cn(-c3ccc(S(N)(=O)=O)cc3)nn2)[C@H](OC(C)=O)[C@@H](OC(C)=O)[C@@H]1OC(C)=O,> 25,31,,
CCN(CC)CCCC(C)Nc1ccnc2cc(Cl)ccc12 (stereo not drawn) [CHLOROQUINE],,,> 1000,

# From ChEMBL document CHEMBL2440073, “Antimalarial activity of compounds comprising a primary benzene sulfonamide fragment” (Bioorg Med Chem Lett, 2013)
